The values below come from US8633183B2 (priority 2010, dated 2014).

Sequence of PI3Kalpha (P42336 whole entry, looked up): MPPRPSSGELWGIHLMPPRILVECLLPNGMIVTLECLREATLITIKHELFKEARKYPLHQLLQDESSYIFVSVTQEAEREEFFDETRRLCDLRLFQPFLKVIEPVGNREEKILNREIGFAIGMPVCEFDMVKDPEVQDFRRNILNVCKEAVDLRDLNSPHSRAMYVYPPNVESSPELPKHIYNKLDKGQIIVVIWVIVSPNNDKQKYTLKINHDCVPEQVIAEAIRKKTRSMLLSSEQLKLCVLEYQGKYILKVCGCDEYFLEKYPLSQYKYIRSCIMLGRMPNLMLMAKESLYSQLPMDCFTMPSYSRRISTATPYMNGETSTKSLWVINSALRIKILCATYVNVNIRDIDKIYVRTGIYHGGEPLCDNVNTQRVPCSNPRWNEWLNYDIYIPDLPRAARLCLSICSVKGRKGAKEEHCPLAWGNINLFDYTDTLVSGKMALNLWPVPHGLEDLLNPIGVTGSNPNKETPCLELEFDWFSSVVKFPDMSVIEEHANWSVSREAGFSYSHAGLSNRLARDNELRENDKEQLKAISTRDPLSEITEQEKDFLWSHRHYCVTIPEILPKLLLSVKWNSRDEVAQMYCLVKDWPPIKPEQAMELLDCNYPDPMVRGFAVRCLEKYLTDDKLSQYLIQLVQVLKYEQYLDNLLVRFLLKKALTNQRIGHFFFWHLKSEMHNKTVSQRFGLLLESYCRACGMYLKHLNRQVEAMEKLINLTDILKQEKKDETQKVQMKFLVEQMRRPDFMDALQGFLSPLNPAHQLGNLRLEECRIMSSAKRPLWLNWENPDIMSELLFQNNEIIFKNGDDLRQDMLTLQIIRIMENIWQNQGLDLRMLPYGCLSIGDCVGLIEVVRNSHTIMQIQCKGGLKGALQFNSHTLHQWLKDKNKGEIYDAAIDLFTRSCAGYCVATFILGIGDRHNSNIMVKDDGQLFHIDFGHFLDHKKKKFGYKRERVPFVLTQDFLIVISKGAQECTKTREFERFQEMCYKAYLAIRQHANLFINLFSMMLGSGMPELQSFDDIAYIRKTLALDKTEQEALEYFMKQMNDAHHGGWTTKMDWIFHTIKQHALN

This experiment has as its target PI3Kalpha (Homo sapiens (Human), UniProt P42336). Conditions: read-out: IC50 PI3K.
Experimental: Plot the concentration of each compound versus the emission ratio. […] Determination of IC50 values can be obtained by curve fitting (sigmoidal dose response, variable slope) using Prism software from GraphPad).
Method Type: Filter-Binding-Assay
Compounds are serially diluted in assay buffer+6% DMSO and 10 μl of each dilution is added per well of a 96-well plate (compounds are tested in duplicates) and mixed with 30 μl of the lipid vesicles containing PDGFR-Peptide (0.5 μM final) and PI3K alpha (25 ng/well final). The mixture is then incubated for 20 minutes at room temperature. Subsequently, 20 μl of assay buffer containing 3 μM cold ATP and 0.5 μCi/20 μl 33P-ATP are added. The plates are then incubated at room temperature for 120 minutes (shaking with 300 rpm). The reaction mix is transferred onto filter plates using “filtermate harvester” from Packard: filter plates are rinsed with PBS, then the reaction mix is filtered onto the filter plate, washed 5 times with PBS and are allowed to dry for 30-60 minutes at 50° C.
As positive control serve wells containing vehicle controls (1% DMSO in assay buffer), showing non-inhibited kinase activity (high values). Wells containing assay buffer instead of enzyme can serve as control for background activity (low values).
Calculate IC50 values using the Smiley program (based on GrapPad Prism)
Regarding `CCc1cc(-c2ncnc(CC)c2C#Cc2ccc(N)nc2)ccn1` [Example C-3], the IC50 was 40 nM.

`CCc1ncnc(-c2cc(C)nc(C)c2)c1C#Cc1ccc(N)nc1` [Example C-4]: the IC50 is 29 nM.

For `CNC(=O)c1ccc(-c2ncnc(C)c2C#Cc2ccc(N)nc2)cc1Cl` [Example C-5], the IC50 is 50 nM.

As for `Cc1ncnc(-c2ccc(C(=O)N(C)C)cc2)c1C#Cc1ccc(N)nc1` [Example C-6], the concentration for half-maximal inhibition (IC50) turned out to be 86 nM.

On to `Cc1ncnc(-c2ccccc2)c1C#Cc1ccc(N)nc1` [Example C-7], for which the IC50 came out at 39 nM.

For `Cc1ncnc(-c2ccc(F)c(C(=O)N(C)C)c2)c1C#Cc1ccc(N)nc1` [Example C-9], the IC50 turned out to be 254 nM.

Take `Cc1ncnc(-c2cccc(C(=O)N(C)C)c2)c1C#Cc1ccc(N)nc1` [Example C-10]: the IC50 stood at 401 nM.

For the compound `Cc1ncnc(-c2ccc(C(=O)N(C)C)c(F)c2)c1C#Cc1ccc(N)nc1` [Example C-11], the IC50 stood at 47 nM.

`CCc1ncnc(-c2ccc(C(=O)NC)c(Cl)c2)c1C#Cc1ccc(N)nc1` [Example C-12]: the IC50 worked out at 71 nM.

On to `CCc1ncnc(-c2ccccc2)c1C#Cc1ccc(N)nc1` [Example C-13], for which the concentration for half-maximal inhibition (IC50) turned out to be 99 nM.

With `CCc1ncnc(-c2ccc(S(C)(=O)=O)cc2)c1C#Cc1ccc(N)nc1` [Example C-14], the IC50 was found to be 66 nM.

Consider `CCc1ncnc(-c2ccc(C(=O)N(C)C)c(F)c2)c1C#Cc1ccc(N)nc1` [Example C-15A], for which the IC50 was 57 nM.

Take `CCc1ncnc(-c2ccc(F)c(C(=O)N(C)C)c2)c1C#Cc1ccc(N)nc1` [Example C-15]: the IC50 was 189 nM.

In the case of `CCc1ncnc(-c2ccc(C(=O)NC)c(Cl)c2)c1C#Cc1ccc(C)nc1` [Example C-16], the IC50 stood at 236 nM.

`CCc1ncnc(-c2ccc(S(C)(=O)=O)cc2)c1C#Cc1ccc(C)nc1` [Example C-17]: the IC50 stood at 99 nM.

With `CCc1ncnc(-c2ccc(C(=O)N(C)C)cc2)c1C#Cc1ccc(C)nc1` [Example C-18], the half-maximal inhibitory concentration (IC50) amounted to 137 nM.

On to `Cc1cc(-c2ncnc(C)c2C#Cc2ccc(N)nc2)ccn1` [Example C-20], for which the concentration for half-maximal inhibition (IC50) was found to be 58 nM.

With `Cc1ncnc(-c2ccc(C(F)(F)F)nc2)c1C#Cc1ccc(N)nc1` [Example C-21], the IC50 was determined as 99 nM.

Consider `Cc1ncnc(-c2cnc3ccccc3c2)c1C#Cc1ccc(N)nc1` [Example C-22], for which the half-maximal inhibitory concentration (IC50) worked out at 30 nM.

For the compound `COc1ccc(-c2ncnc(C)c2C#Cc2ccc(N)nc2)cn1` [Example C-23], the IC50 amounted to 78 nM.

In the case of `Cc1ccc(-c2ncnc(C)c2C#Cc2ccc(N)nc2)cn1` [Example C-24], the concentration for half-maximal inhibition (IC50) stood at 59 nM.

As for `Cc1ncnc(-c2ccc(N3CCCCC3)nc2)c1C#Cc1ccc(N)nc1` [Example C-25], the IC50 was found to be 64 nM.

As to `Cc1ncnc(-c2ccc(C3CC3)nc2)c1C#Cc1ccc(N)nc1` [Example C-26], the half-maximal inhibitory concentration (IC50) is 43 nM.

`CCc1ncnc(-c2ccnc(C)c2)c1C#Cc1ccc(N)nc1` [Example C-27]: the IC50 is 57 nM.

As for `CCc1ncnc(-c2ccc(C(F)(F)F)nc2)c1C#Cc1ccc(N)nc1` [Example C-28], the IC50 turned out to be 58 nM.

As for `CCc1ncnc(-c2cnc3ccccc3c2)c1C#Cc1ccc(N)nc1` [Example C-29], the IC50 was found to be 24 nM.

With `CCc1ncnc(-c2ccc(OC)nc2)c1C#Cc1ccc(N)nc1` [Example C-30], the IC50 was 40 nM.

For `CCc1ncnc(-c2ccc(C)nc2)c1C#Cc1ccc(N)nc1` [Example C-31], the half-inhibitory concentration (IC50) is 30 nM.

For `CCc1ncnc(-c2ccc(N3CCOCC3)nc2)c1C#Cc1ccc(N)nc1` [Example C-32], the 50% inhibitory concentration (IC50) was found to be 32 nM.

With `CCc1ncnc(-c2ccnc(OC)c2)c1C#Cc1ccc(N)nc1` [Example C-33], the IC50 stood at 61 nM.

In the case of `CCc1ncnc(-c2ccc(N(C)C)nc2)c1C#Cc1ccc(N)nc1` [Example C-34], the IC50 worked out at 37 nM.

Turning to `CCN(CC)C(=O)c1cccc(-c2ncnc(C)c2C#Cc2ccc(N)nc2)c1` [Example C-36], the IC50 worked out at 308 nM.

`Cc1ncnc(-c2cccc(C(=O)N3CCOCC3)c2)c1C#Cc1ccc(N)nc1` [Example C-37]: the IC50 came out at 224 nM.

Consider `Cc1ncnc(-c2cc(Cl)cc(C(=O)N(C)C)c2)c1C#Cc1ccc(N)nc1` [Example C-38], for which the IC50 was determined as 68 nM.

Regarding `Cc1ncnc(-c2ccc(F)c(C(=O)N3CCOCC3)c2)c1C#Cc1ccc(N)nc1` [Example C-39], the IC50 is 380 nM.

Consider `Cc1ncnc(-c2ccc(Cl)c(C(=O)N3CCOCC3)c2)c1C#Cc1ccc(N)nc1` [Example C-40], for which the IC50 is 459 nM.

On to `Cc1ncnc(-c2ccc(F)c(C(=O)N3CCCCC3)c2)c1C#Cc1ccc(N)nc1` [Example C-41], for which the IC50 is 539 nM.

For `CNC(=O)c1cc(-c2ncnc(C)c2C#Cc2ccc(N)nc2)ccc1F` [Example C-43], the IC50 was determined as 184 nM.

For the compound `CCc1ncnc(-c2cccc(C(=O)N(CC)CC)c2)c1C#Cc1ccc(N)nc1` [Example C-44], the 50% inhibitory concentration (IC50) worked out at 188 nM.

As to `CCc1ncnc(-c2ccc(F)c(C(=O)N3CCOCC3)c2)c1C#Cc1ccc(N)nc1` [Example C-46], the IC50 was 226 nM.

Turning to `CCc1ncnc(-c2ccc(Cl)c(C(=O)N(CC)CC)c2)c1C#Cc1ccc(N)nc1` [Example C-47], the IC50 was found to be 541 nM.

`CCc1ncnc(-c2ccc(Cl)c(C(=O)N3CCCCC3)c2)c1C#Cc1ccc(N)nc1` [Example C-48]: the IC50 turned out to be 596 nM.

As to `CCc1ncnc(-c2ccc(Cl)c(C(=O)NC)c2)c1C#Cc1ccc(N)nc1` [Example C-49], the IC50 was 67 nM.

In the case of `CCc1ncnc(-c2cccc(C(=O)NC)c2)c1C#Cc1ccc(N)nc1` [Example C-50], the IC50 came out at 72 nM.

`CCc1ncnc(-c2ccc(C(=O)N(C)CCCOC)c(F)c2)c1C#Cc1ccc(N)nc1` [Example D-1]: the IC50 was determined as 78 nM.

Consider `CCc1ncnc(-c2ccc(C(=O)N(C)C3CCN(C)CC3)c(F)c2)c1C#Cc1ccc(N)nc1` [Example D-3], for which the IC50 was found to be 574 nM.

Regarding `CCc1ncnc(-c2ccc(C(=O)N(C)CCCO)c(F)c2)c1C#Cc1ccc(N)nc1` [Example D-4], the half-inhibitory concentration (IC50) worked out at 58 nM.

Turning to `CCc1ncnc(-c2ccc(C(=O)NC)c(F)c2)c1C#Cc1ccc(N)nc1` [Example D-5], the IC50 came out at 225 nM.

For the compound `CCc1ncnc(-c2ccc(C(=O)N(C)CCOC)c(F)c2)c1C#Cc1ccc(N)nc1` [Example D-7], the IC50 is 103 nM.

Turning to `CCc1ncnc(-c2ccc(C(=O)N3CCN(C)CC3)c(F)c2)c1C#Cc1ccc(N)nc1` [Example D-8], the IC50 is 215 nM.

Take `CCc1ncnc(-c2ccc(C(=O)N(C)CCCN(C)C)c(F)c2)c1C#Cc1ccc(N)nc1` [Example D-9]: the half-inhibitory concentration (IC50) is 591 nM.

As to `CCc1ncnc(-c2ccc(C(=O)N3CCCCC3)c(F)c2)c1C#Cc1ccc(N)nc1C` [Example D-10], the concentration for half-maximal inhibition (IC50) turned out to be 206 nM.

Regarding `CCc1ncnc(-c2ccc(C(=O)N3CCN(CC(F)F)CC3)c(F)c2)c1C#Cc1ccc(N)nc1C` [Example D-12], the IC50 was found to be 163 nM.

As for `CCc1ncnc(-c2ccc(C(=O)N3CCN(C4CC4)CC3)c(F)c2)c1C#Cc1ccc(N)nc1C` [Example D-13], the IC50 was determined as 312 nM.

Regarding `CCc1ncnc(-c2ccc(C(=O)N3CCC(C(F)(F)F)CC3)c(F)c2)c1C#Cc1ccc(N)nc1C` [Example D-14], the IC50 turned out to be 647 nM.

In the case of `CCc1ncnc(-c2ccc(C(=O)N3CCN(CC4CCCO4)CC3)c(F)c2)c1C#Cc1ccc(N)nc1C` [Example D-16], the IC50 worked out at 192 nM.

With `CCc1ncnc(-c2ccc(C(=O)N3CCN(C4CCS(=O)(=O)C4)CC3)c(F)c2)c1C#Cc1ccc(N)nc1C` [Example D-17], the half-inhibitory concentration (IC50) is 178 nM.

Take `CCc1ncnc(-c2ccc(C(=O)N3CCN4CCCCC4C3)c(F)c2)c1C#Cc1ccc(N)nc1C` [Example D-18]: the IC50 was found to be 481 nM.

For the compound `CCc1ncnc(-c2ccc(C(=O)N3CCN(S(=O)(=O)CC)CC3)c(F)c2)c1C#Cc1ccc(N)nc1C` [Example D-19], the IC50 turned out to be 92 nM.

`CCc1ncnc(-c2ccc(C(=O)N3CCOCC3)c(F)c2)c1C#Cc1ccc(N)nc1C` [Example D-20]: the IC50 is 116 nM.

Consider `CCc1ncnc(-c2ccc(C(=O)N3CCN(C)CC3)c(F)c2)c1C#Cc1ccc(N)nc1C` [Example D-21], for which the IC50 worked out at 270 nM.

As to `CCc1ncnc(-c2ccc(C(=O)N3CCN(CC4CCCCC4)CC3)c(F)c2)c1C#Cc1ccc(N)nc1C` [Example D-22], the IC50 came to 1270 nM.

As for `CCc1ncnc(-c2ccc(C(=O)N3CCN(CC(=O)N(C)C)CC3)c(F)c2)c1C#Cc1ccc(N)nc1C` [Example D-23], the IC50 turned out to be 123 nM.

On to `CCc1ncnc(-c2ccc(C(=O)N3CCN(Cc4ccccc4)CC3)c(F)c2)c1C#Cc1ccc(N)nc1C` [Example D-24], for which the half-inhibitory concentration (IC50) came out at 1020 nM.

As to `CCc1ncnc(-c2ccc(C(=O)N3CCN(c4ccccc4)CC3)c(F)c2)c1C#Cc1ccc(N)nc1C` [Example D-25], the IC50 was 498 nM.

In the case of `CCc1ncnc(-c2ccc(C(=O)N3CCN(CCN(C)C)CC3)c(F)c2)c1C#Cc1ccc(N)nc1C` [Example D-26], the IC50 was 552 nM.

For the compound `CCCCN1CCN(C(=O)c2ccc(-c3ncnc(CC)c3C#Cc3ccc(N)nc3)cc2Cl)CC1` [Example D-29], the IC50 stood at 162 nM.

For `CCc1ncnc(-c2ccc(C(=O)N(C)CCCOC)c(Cl)c2)c1C#Cc1ccc(N)nc1` [Example D-30], the IC50 turned out to be 68 nM.

As for `CCc1ncnc(-c2ccc(C(=O)N3CCN(C4CCOCC4)CC3)c(Cl)c2)c1C#Cc1ccc(N)nc1` [Example D-31], the IC50 was 97 nM.

Turning to `CCc1ncnc(-c2ccc(C(=O)N3CCN(C4CCS(=O)(=O)C4)CC3)c(Cl)c2)c1C#Cc1ccc(N)nc1` [Example D-32], the IC50 was found to be 121 nM.

For the compound `CCc1ncnc(-c2ccc(C(=O)NCCOC)c(Cl)c2)c1C#Cc1ccc(N)nc1` [Example D-33], the 50% inhibitory concentration (IC50) worked out at 181 nM.

On to `CCc1ncnc(-c2ccc(C(=O)N(C)CCO)c(Cl)c2)c1C#Cc1ccc(N)nc1` [Example D-34], for which the IC50 was determined as 36 nM.

In the case of `CCc1ncnc(-c2ccc(C(=O)N(C)CCOC)c(Cl)c2)c1C#Cc1ccc(N)nc1` [Example D-35], the IC50 was 63 nM.

On to `CCc1ncnc(-c2ccc(C(=O)N3CCN(CCO)CC3)c(Cl)c2)c1C#Cc1ccc(N)nc1` [Example D-36], for which the IC50 stood at 84 nM.

For the compound `CCc1ncnc(-c2ccc(C(=O)N3CCN(c4ccccn4)CC3)c(Cl)c2)c1C#Cc1ccc(N)nc1` [Example D-37], the half-inhibitory concentration (IC50) came out at 118 nM.

Usually IC50 stands for the concentration needed to halve the response being measured.
